Measured values: US11945806B2, “Stabilization of amyloidogenic immunoglobulin light chains” (The Scripps Research Institute, priority 2019, dated 2024)

molecular target: WIL-FL (Homo sapiens, UniProt P01721); assay: Unlabeled LC Protease Sensitivity Assay (proteinase K); type: biochemical; conditions: small molecule 10 μM, WIL-FL 5 μM, proteinase K 50 nM, 2 hours at 37° C.
Method in brief: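 WIL-FL light chain (5 μM) in PBS pH 7.4 + 0.02% Pluronic F-127 digested with proteinase K (50 nM) for 2 h at 37 °C with 10 μM compound (1% DMSO). Intact WIL-FL quantified by size-exclusion UPLC (A280). Fold protection = (A_compound−A_vehicle)/(A_no_protease−A_vehicle) from peak areas.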

Row | Structure (SMILES) | Protection (fold protection of LC from protease)
1 | CCN(CC)c1ccc2c(C)c(CN3C(=O)CNC3=O)c(=O)oc2c1 [Compound 129, 3-((7-(diethylamino)-4-methyl-2-oxo-2H-chromen-3-yl)methyl)imidazolidine-2,4-dione] | B (3 ≤ B < 0.6)
2 | CCN(CC)c1ccc2c(C)c(CCN3C(=O)CNC3=O)c(=O)oc2c1 [Compound 130, 3-(2-(7-(diethylamino)-4-methyl-2-oxo-2H-chromen-3-yl)ethyl)imidazolidine-2,4-dione] | B (3 ≤ B < 0.6)
3 | CCN(CC)c1ccc2c(C)c(CCNC(=O)NC)c(=O)oc2c1 [Compound 131, 1-(2-(7-(diethylamino)-4-methyl-2-oxo-2H-chromen-3-yl)ethyl)-3-methylurea] | B (3 ≤ B < 0.6)
4 | CCN(CC)c1ccc2c(C)c(CCOC(=O)NCCNc3ccccn3)c(=O)oc2c1 [Compound 132, 2-(7-(diethylamino)-4-methyl-2-oxo-2H-chromen-3-yl)ethyl (2-(pyridin-2-ylamino)ethyl)carbamate] | C (C ≥ 0.6)
5 | CCN(CC)c1ccc2c(C)c(CCOC(=O)NCCCN(C)C)c(=O)oc2c1 [Compound 133, 2-(7-(diethylamino)-4-methyl-2-oxo-2H-chromen-3-yl)ethyl (3-(dimethylamino)propyl)carbamate] | B (3 ≤ B < 0.6)
6 | CCN(CC)c1ccc2c(C)c(CCOC(=O)NCc3cccc(CN(C)C)c3)c(=O)oc2c1 [Compound 135, 2-(7-(diethylamino)-4-methyl-2-oxo-2H-chromen-3-yl)ethyl (3-((dimethylamino)methyl)benzyl)carbamate] | C (C ≥ 0.6)
7 | CCc1cc(=O)oc2cc(N(CC)CC)ccc12 [Compound 136, 7-(diethylamino)-4-ethyl-2H-chromen-2-one] | A (A < 0.3))
8 | CCN(CC)c1ccc2c(C)c(CCOC(=O)NCc3ccc4[nH]ccc4c3)c(=O)oc2c1 [Compound 137, 2-(7-(diethylamino)-4-methyl-2-oxo-2H-chromen-3-yl)ethyl ((1H-indol-5-yl)methyl)carbamate] | B (3 ≤ B < 0.6)
9 | CCN(CC)c1ccc2c(C)c(CCOC(=O)NCc3ccc(=O)[nH]c3)c(=O)oc2c1 [Compound 138, 2-(7-(diethylamino)-4-methyl-2-oxo-2H-chromen-3-yl)ethyl ((6-oxo-1,6-dihydropyridin-3-yl)methyl)carbamate] | A (A < 0.3))
10 | CCN(CC)c1ccc2c(C)c(CCOC(=O)NCc3nccc4ccccc34)c(=O)oc2c1 [Compound 139, 2-(7-(diethylamino)-4-methyl-2-oxo-2H-chromen-3-yl)ethyl (isoquinolin-1-ylmethyl)carbamate] | A (A < 0.3))
11 | CCN(CC)c1ccc2c(C)c(CCOC(=O)NCc3cncc4ccccc34)c(=O)oc2c1 [Compound 140, 2-(7-(diethylamino)-4-methyl-2-oxo-2H-chromen-3-yl)ethyl (isoquinolin-4-ylmethyl)carbamate] | A (A < 0.3))
12 | CCN(CC)c1ccc2c(C)c(CCOC(=O)NCc3cccc(-c4c[nH]cn4)c3)c(=O)oc2c1 [Compound 141, 2-(7-(diethylamino)-4-methyl-2-oxo-2H-chromen-3-yl)ethyl (3-(1H-imidazol-4-yl)benzyl)carbamate] | C (C ≥ 0.6)
13 | CCN(CC)c1ccc2c(C)c(CCOC(=O)NCc3ccc4nc[nH]c4c3)c(=O)oc2c1 [Compound 142, 2-(7-(diethylamino)-4-methyl-2-oxo-2H-chromen-3-yl)ethyl ((1H-benzo[d]imidazol-6-yl)methyl)carbamate] | C (C ≥ 0.6)
14 | CCN(CC)c1ccc2c(C)c(CCOC(=O)NCc3ccc4cc[nH]c(=O)c4c3)c(=O)oc2c1 [Compound 143, 2-(7-(diethylamino)-4-methyl-2-oxo-2H-chromen-3-yl)ethyl ((1-oxo-1,2-dihydroisoquinolin-7-yl)methyl)carbamate] | B (3 ≤ B < 0.6)
15 | CCN(CC)c1ccc2c(C)c(CCOC(=O)NCc3ccc(F)c(C(N)=O)c3)c(=O)oc2c1 [Compound 144, 2-(7-(diethylamino)-4-methyl-2-oxo-2H-chromen-3-yl)ethyl (3-carbamoyl-4-fluorobenzyl)carbamate] | C (C ≥ 0.6)
16 | CCN(CC)c1ccc2c(C)c(CCOC(=O)NCc3cc(F)cc(C(N)=O)c3)c(=O)oc2c1 [Compound 145, 2-(7-(diethylamino)-4-methyl-2-oxo-2H-chromen-3-yl)ethyl (3-carbamoyl-5-fluorobenzyl)carbamate] | C (C ≥ 0.6)
17 | CCN(CC)c1ccc2c(C)c(CCOC(=O)NCC3CCCNC3)c(=O)oc2c1 (stereo not shown) [Compound 146, 2-(7-(diethylamino)-4-methyl-2-oxo-2H-chromen-3-yl)ethyl (piperidin-3-ylmethyl)carbamate] | B (3 ≤ B < 0.6)
18 | CCN(CC)c1ccc2c(C)c(CCOC(=O)NCC3CCNCC3)c(=O)oc2c1 [Compound 147, 2-(7-(diethylamino)-4-methyl-2-oxo-2H-chromen-3-yl)ethyl (piperidin-4-ylmethyl)carbamate] | B (3 ≤ B < 0.6)
19 | CCN(CC)c1ccc2c(C)c(CCOC(=O)NCC3CCN(C)CC3)c(=O)oc2c1 [Compound 148, 2-(7-(diethylamino)-4-methyl-2-oxo-2H-chromen-3-yl)ethyl ((1-methylpiperidin-4-yl)methyl)carbamate] | B (3 ≤ B < 0.6)
20 | CCN(CC)c1ccc2c(C)c(CCOC(=O)NCc3cccc(S(N)(=O)=O)c3)c(=O)oc2c1 [Compound 149, 2-(7-(diethylamino)-4-methyl-2-oxo-2H-chromen-3-yl)ethyl (3-sulfamoylbenzyl)carbamate] | C (C ≥ 0.6)
21 | CCN(CC)c1ccc(NC(=O)CN2C(=O)CNC2=O)cc1 [Compound 150, N-(4-(diethylamino)phenyl)-2-(2,5-dioxoimidazolidin-1-yl)acetamide] | A (A < 0.3))
22 | O=C(CN1C(=O)CNC1=O)Nc1ccc(C(F)(F)F)cc1 [Compound 151, 2-(2,5-dioxoimidazolidin-1-yl)-N-(4-(trifluoromethyl)phenyl)acetamide] | A (A < 0.3))
23 | Cc1c(CN2CCOCC2)c(=O)oc2cc(OC(C)c3ccccc3)ccc12 (stereo not shown) [Compound 152, 4-methyl-3-(morpholinomethyl)-7-(1-phenylethoxy)-2H-chromen-2-one] | B (3 ≤ B < 0.6)
24 | CCN(CC)c1ccc2c(C)c(CCOC(=O)NCc3cccc(-c4ncc[nH]4)c3)c(=O)oc2c1 [Compound 153, 2-(7-(diethylamino)-4-methyl-2-oxo-2H-chromen-3-yl)ethyl (3-(1H-imidazol-2-yl)benzyl)carbamate] | C (C ≥ 0.6)
25 | CCN(CC)c1ccc2c(C)c(CCOC(=O)NCc3cccc(-c4ccccn4)c3)c(=O)oc2c1 [Compound 154, 2-(7-(diethylamino)-4-methyl-2-oxo-2H-chromen-3-yl)ethyl (3-(pyridin-2-yl)benzyl)carbamate] | C (C ≥ 0.6)
